Data reported in PubChem BioAssay AID322 (DTP/NCI, 2004).
Values joined by “and” are separate entries in the source; they are usually repeats but may differ in a detail not shown here. Equal entries are not always repeated. Toxic doses and inconclusive results are not listed.

Tested on: CD2F1 mice, P388/ADR leukemia ip, median survival T/C
Assay: NCI In Vivo Anticancer Drug Screen. Data for tumor model P388 Leukemia resistant to Adriamycin; NSC 123127, Developed at Scr 08 (intraperitoneal) in CD2F1 (CDF1) mice
Details: endpoint: median survival time, higher = longer survival
Protocol: The antitumor activity of compounds was measured in mice bearing transplantable tumors. Survival or tumor size were measured and the results are expressed as the measurement made in the treated group (T) divided by the measurement made in the vehicle treated control group (C). The tumor model used in this assay is P388 Leukemia resistant to Adriamycin; NSC 123127, Developed at Scr 08 (intraperitoneal) in CD2F1 (CDF1) mice

[1] = dose: 44.0 mg/kg/injection, schedule: Q01DX009 (ip), vehicle: saline
[2] = dose: 67.0 mg/kg/injection, schedule: Q01DX009 (ip), vehicle: saline
[3] = dose: 100.0 mg/kg/injection, schedule: Q01DX009 (ip), vehicle: saline
[4] = dose: 150.0 mg/kg/injection, schedule: Q01DX009 (ip), vehicle: saline
[5] = dose: 150.0 mg/kg/injection, schedule: Q01DX005 (ip), vehicle: saline
[6] = dose: 25.0 mg/kg/injection, schedule: Q01DX005 (ip), vehicle: saline
[7] = dose: 100.0 mg/kg/injection, schedule: Q01DX005 (ip), vehicle: saline
[8] = dose: 50.0 mg/kg/injection, schedule: Q01DX005 (ip), vehicle: Klucel (hydroxypropylcellulose) (HPC)
[9] = dose: 25.0 mg/kg/injection, schedule: Q01DX005 (ip), vehicle: saline with Tween-80
[10] = dose: 50.0 mg/kg/injection, schedule: Q01DX005 (ip), vehicle: saline with Tween-80
[11] = dose: 100.0 mg/kg/injection, schedule: Q01DX005 (ip), vehicle: saline with Tween-80
[12] = dose: 200.0 mg/kg/injection, schedule: Q01DX005 (ip), vehicle: saline with Tween-80
[13] = dose: 12.5 mg/kg/injection, schedule: Q01DX005 (ip), vehicle: Klucel (hydroxypropylcellulose) (HPC)
[14] = dose: 25.0 mg/kg/injection, schedule: Q01DX005 (ip), vehicle: Klucel (hydroxypropylcellulose) (HPC)

## CN1CCN(c2ccc3nc(-c4ccc5nc(-c6ccc(O)cc6)[nH]c5c4)[nH]c3c2)CC1
[1]
  T/C: 118 % of control
[2]
  T/C: 109 % of control
[3]
  T/C: 105 % of control
[4]
  T/C: 103 % of control

## COc1ccc2[nH]c3ccc4cc[n+](CCN5CCC(C6CCN(CC[n+]7ccc8ccc9[nH]c%10ccc(OC)cc%10c9c8c7)CC6)CC5)cc4c3c2c1
dose: 2.0 mg/kg/injection, schedule: Q01DX005 (ip), vehicle: water
  T/C: 119 % of control
dose: 4.0 mg/kg/injection, schedule: Q01DX005 (ip), vehicle: water
  T/C: 123 % of control
dose: 8.0 mg/kg/injection, schedule: Q01DX005 (ip), vehicle: water
  T/C: 152 % of control
dose: 16.0 mg/kg/injection, schedule: Q01DX005 (ip), vehicle: water
  T/C: 158 % of control
dose: 32.0 mg/kg/injection, schedule: Q01DX005 (ip), vehicle: water
  T/C: 163 % of control

## C[C@H](N)C(=O)N[C@@H]1[C@H]2C(=C(O)C[C@@H](O)[C@@H]2O)C(=O)O[C@@H]1C
[5]
  T/C: 100 % of control and 105 % of control
dose: 300.0 mg/kg/injection, schedule: Q01DX005 (ip), vehicle: saline
  T/C: 100 % of control and 104 % of control
dose: 600.0 mg/kg/injection, schedule: Q01DX005 (ip), vehicle: saline
  T/C: 98 % of control and 105 % of control
dose: 1200.0 mg/kg/injection, schedule: Q01DX005 (ip), vehicle: saline
  T/C: 97 % of control and 103 % of control

## COc1cccc2c1C(=O)c1c(O)c3c(c(O)c1C2=O)CC(O)(C(=O)CO)CC3OC1CC(N)C(I)C(C)O1 (configuration not stated)
dose: 2.2 mg/kg/injection, schedule: Q01DX001 (ip), vehicle: saline
  T/C: 98 % of control
dose: 3.3 mg/kg/injection, schedule: Q01DX001 (ip), vehicle: saline
  T/C: 99 % of control
dose: 5.0 mg/kg/injection, schedule: Q01DX001 (ip), vehicle: saline
  T/C: 108 % of control and 117 % of control
dose: 7.5 mg/kg/injection, schedule: Q01DX001 (ip), vehicle: saline
  T/C: 118 % of control
dose: 25.2 mg/kg/injection, schedule: Q01DX001 (ip), vehicle: saline
  T/C: 150 % of control

## O=P1(N(CCCl)CCCl)NCCCO1 (configuration not stated)
dose: 12.5 mg/kg/injection, schedule: Q01DX005 (ip), vehicle: saline
  T/C: 154 % of control
[6]
  T/C: 165 % of control and 189 % of control
dose: 50.0 mg/kg/injection, schedule: Q01DX005 (ip), vehicle: saline
  T/C: 191 % of control and 217 % of control
[7]
  T/C: 171 % of control and 309 % of control

## Cc1c2ccncc2c(C)c2c1[nH]c1ccccc12
dose: 90.0 mg/kg/injection, schedule: Q04DX002 (ip), vehicle: saline with Tween-80
  T/C: 115 % of control
dose: 134.0 mg/kg/injection, schedule: Q04DX002 (ip), vehicle: saline with Tween-80
  T/C: 156 % of control
dose: 200.0 mg/kg/injection, schedule: Q04DX002 (ip), vehicle: saline with Tween-80
  T/C: 168 % of control
dose: 300.0 mg/kg/injection, schedule: Q04DX002 (ip), vehicle: saline with Tween-80
  T/C: 153 % of control

## COc1nc(C(Cl)(Cl)Cl)c(Cl)c(OC)c1Cl
[8]
  T/C: 114 % of control
dose: 90.0 mg/kg/injection, schedule: Q01DX005 (ip), vehicle: Klucel (hydroxypropylcellulose) (HPC)
  T/C: 124 % of control

## O=C(O)c1cc(C(=O)O)c(C(=O)O)cc1C(=O)O.[NH2-].[NH2-].[NH2-].[NH2-].[Pt+2].[Pt+2]
dose: 3.12 mg/kg/injection, schedule: Q01DX005 (ip), vehicle: saline
  T/C: 123 % of control
[6]
  T/C: 167 % of control
dose: 25.0 mg/kg/injection, schedule: Q01DX005 (ip), vehicle: suspension in saline
  T/C: 150 % of control
dose: 41.67 mg/kg/injection, schedule: Q01DX005 (ip), vehicle: suspension in saline
  T/C: 178 % of control

## CCCCCCCCCCCCN1C(C)=CS/C1=C\C=C\c1scc(C)[n+]1CCCCCCCCCCCC
dose: 0.75 mg/kg/injection, schedule: Q01DX005 (ip), vehicle: saline with Tween-80
  T/C: 123 % of control
dose: 1.5 mg/kg/injection, schedule: Q01DX005 (ip), vehicle: saline with Tween-80
  T/C: 117 % of control
dose: 3.0 mg/kg/injection, schedule: Q01DX005 (ip), vehicle: saline with Tween-80
  T/C: 109 % of control

## CC[C@@]1(O)CC(OC2CC(N3CCOCC3)C(O)C(C)O2)c2c(O)c3c(c(O)c2[C@H]1O)C(=O)c1cccc(O)c1C3=O (some centres not stated)
dose: 3.0 mg/kg/injection, schedule: Q04DX003 (iv), vehicle: saline
  T/C: 160 % of control

## Nc1ncn(C2OC(CO)C(O)C2O)c(=O)n1 (configuration not stated)
dose: 30.0 mg/kg/injection, schedule: Q01DX009 (ip), vehicle: saline
  T/C: 232 % of control and 246 % of control
dose: 44.0 mg/kg/injection, schedule: Q01DX005 (ip), vehicle: saline
  T/C: 183 % of control
[1]
  T/C: 248 % of control and 261 % of control
dose: 67.0 mg/kg/injection, schedule: Q01DX005 (ip), vehicle: saline
  T/C: 189 % of control
[2]
  T/C: 253 % of control and 280 % of control
[7]
  T/C: 210 % of control
[3]
  T/C: 263 % of control and 270 % of control
[5]
  T/C: 206 % of control
[4]
  T/C: 277 % of control and 296 % of control
dose: 200.0 mg/kg/injection, schedule: Q01DX005 (ip), vehicle: saline
  T/C: 207 % of control

## NC(N)=NS(=O)(=O)c1ccc(NCc2c3ccccc3nc3ccccc23)cc1
dose: 50.0 mg/kg/injection, schedule: Q04DX003 (ip), vehicle: Klucel (hydroxypropylcellulose) (HPC)
  T/C: 101 % of control
dose: 100.0 mg/kg/injection, schedule: Q04DX003 (ip), vehicle: Klucel (hydroxypropylcellulose) (HPC)
  T/C: 97 % of control
dose: 200.0 mg/kg/injection, schedule: Q04DX003 (ip), vehicle: Klucel (hydroxypropylcellulose) (HPC)
  T/C: 100 % of control
dose: 400.0 mg/kg/injection, schedule: Q04DX003 (ip), vehicle: Klucel (hydroxypropylcellulose) (HPC)
  T/C: 87 % of control

## COc1cccc2c1C(=O)c1c(O)c3c(c(O)c1C2=O)C[C@@](O)(C(=O)CO)C[C@@H]3OC1CC(N2CCOCC2)C(O)C(C)O1 (some centres not stated)
dose: 22.0 micrograms/kg/injection, schedule: Q04DX003 (iv), vehicle: saline + alcohol
  T/C: 107 % of control
dose: 33.0 micrograms/kg/injection, schedule: Q04DX003 (iv), vehicle: saline + alcohol
  T/C: 105 % of control
dose: 50.0 micrograms/kg/injection, schedule: Q04DX003 (iv), vehicle: saline + alcohol
  T/C: 102 % of control
dose: 75.0 micrograms/kg/injection, schedule: Q04DX003 (iv), vehicle: saline + alcohol
  T/C: 101 % of control

## O=C(Oc1ccccc1)c1cc(O)c(O)c(O)c1
[9]
  T/C: 102 % of control
[10]
  T/C: 98 % of control
[11]
  T/C: 99 % of control
[12]
  T/C: 112 % of control

## [N-]=[N+]=CC(=O)CCC(NC(=O)OCc1ccccc1)C(=O)OCc1ccccc1 (configuration not stated)
[13]
  T/C: 115 % of control
[14]
  T/C: 117 % of control
dose: 36.0 mg/kg/injection, schedule: Q01DX005 (ip), vehicle: Klucel (hydroxypropylcellulose) (HPC)
  T/C: 100 % of control
dose: 60.0 mg/kg/injection, schedule: Q01DX005 (ip), vehicle: Klucel (hydroxypropylcellulose) (HPC)
  T/C: 112 % of control
dose: 100.0 mg/kg/injection, schedule: Q01DX005 (ip), vehicle: Klucel (hydroxypropylcellulose) (HPC)
  T/C: 166 % of control
dose: 200.0 mg/kg/injection, schedule: Q01DX005 (ip), vehicle: Klucel (hydroxypropylcellulose) (HPC)
  T/C: 165 % of control
dose: 278.0 mg/kg/injection, schedule: Q01DX005 (ip), vehicle: Klucel (hydroxypropylcellulose) (HPC)
  T/C: 155 % of control

## COC(=O)C[C@](O)(CCCC(C)(C)O)C(=O)O[C@@H]1C(OC)=C[C@]23CCCN2CCc2cc4c(cc2[C@H]13)OCO4
dose: 0.87 mg/kg/injection, schedule: Q01DX009 (ip), vehicle: acid diluted with saline
  T/C: 104 % of control and 109 % of control
dose: 1.3 mg/kg/injection, schedule: Q01DX009 (ip), vehicle: acid diluted with saline
  T/C: 99 % of control

## CC1=C(C(N)=O)C(c2ccccc2)NC(=S)N1 (configuration not stated)
dose: 3.12 mg/kg/injection, schedule: Q01DX005 (ip), vehicle: Klucel (hydroxypropylcellulose) (HPC)
  T/C: 99 % of control
dose: 6.25 mg/kg/injection, schedule: Q01DX005 (ip), vehicle: Klucel (hydroxypropylcellulose) (HPC)
  T/C: 101 % of control
[13]
  T/C: 98 % of control
[14]
  T/C: 96 % of control and 107 % of control
[8]
  T/C: 96 % of control

## Nc1ccc2ccc(NS(=O)(=O)N3CCCCC3)cc2c1
[9]
  T/C: 111 % of control
[10]
  T/C: 107 % of control
[11]
  T/C: 106 % of control
[12]
  T/C: 101 % of control
dose: 400.0 mg/kg/injection, schedule: Q01DX005 (ip), vehicle: saline with Tween-80
  T/C: 99 % of control
